PubChem BioAssay (NCI)
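These data come from cells grown in 96-well plates and exposed to compound for 48 hours at five concentrations. TGI: total growth inhibition.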

Key:
Assay in all cases: NCI tumour cell line growth inhibition, 48 h
RXF 393 renal = system: RXF 393 renal
PC-3 prostate = system: PC-3 prostate
HT29 colon = system: HT29 colon
SF-539 CNS = system: SF-539 CNS
M14 melanoma = system: M14 melanoma
SF-268 CNS = system: SF-268 CNS
K-562 leukemia = system: K-562 leukemia
SR leukemia = system: SR leukemia
NCI-H522 lung = system: NCI-H522 lung
A498 renal = system: A498 renal
SK-MEL-28 melanoma = system: SK-MEL-28 melanoma
MALME-3M melanoma = system: MALME-3M melanoma
OVCAR-8 ovarian = system: OVCAR-8 ovarian
HCT-15 colon = system: HCT-15 colon
CCRF-CEM leukemia = system: CCRF-CEM leukemia
HS 578T breast = system: HS 578T breast
A549 NSCLC = system: A549 NSCLC
KM12 colon = system: KM12 colon
NCI-H23 lung = system: NCI-H23 lung
UO-31 renal = system: UO-31 renal
DU-145 prostate = system: DU-145 prostate
786-0 renal = system: 786-0 renal
HL-60(TB) leukemia = system: HL-60(TB) leukemia
IGROV1 ovarian = system: IGROV1 ovarian
SK-MEL-2 melanoma = system: SK-MEL-2 melanoma
T-47D breast = system: T-47D breast
MOLT-4 leukemia = system: MOLT-4 leukemia
NCI-H460 lung = system: NCI-H460 lung
TK-10 renal = system: TK-10 renal
HCC-2998 colon = system: HCC-2998 colon
SK-MEL-5 melanoma = system: SK-MEL-5 melanoma
MCF7 breast = system: MCF7 breast
OVCAR-4 ovarian = system: OVCAR-4 ovarian
HCT-116 colon = system: HCT-116 colon
SNB-75 CNS = system: SNB-75 CNS
HOP-62 NSCLC = system: HOP-62 NSCLC
SW-620 colon = system: SW-620 colon
LOX IMVI melanoma = system: LOX IMVI melanoma
BT-549 breast = system: BT-549 breast
UACC-257 melanoma = system: UACC-257 melanoma
CAKI-1 renal = system: CAKI-1 renal
HOP-92 NSCLC = system: HOP-92 NSCLC
ACHN renal = system: ACHN renal
SF-295 CNS = system: SF-295 CNS
SNB-19 CNS = system: SNB-19 CNS
NCI/ADR-RES ovarian = system: NCI/ADR-RES ovarian
MDA-MB-435 = system: MDA-MB-435
NCI-H226 lung = system: NCI-H226 lung
U251 CNS = system: U251 CNS
OVCAR-3 ovarian = system: OVCAR-3 ovarian
OVCAR-5 ovarian = system: OVCAR-5 ovarian
MDA-N = system: MDA-N
SN12C renal = system: SN12C renal
MDA-MB-231 breast = system: MDA-MB-231 breast
EKVX NSCLC = system: EKVX NSCLC
SK-OV-3 ovarian = system: SK-OV-3 ovarian
RPMI-8226 leukemia = system: RPMI-8226 leukemia
UACC-62 melanoma = system: UACC-62 melanoma
COLO 205 colon = system: COLO 205 colon

Question: `C/C(=N\NC(=S)N1CCCCCCCCCCCC1)c1ccccn1` was tested. Which TGI (RXF 393 renal) did it give?
Answer: 536 nM

Question: What about the TGI (PC-3 prostate) of the same molecule?
Answer: 1100 nM

Question: And the TGI (HT29 colon)?
Answer: 1040 nM

Question: And the TGI (SF-539 CNS)?
Answer: 846 nM

Question: What about the TGI (M14 melanoma) of the same molecule?
Answer: 2150 nM

Question: And the TGI (SF-268 CNS)?
Answer: 2010 nM

Question: What about the TGI (K-562 leukemia) of the same molecule?
Answer: 121 nM

Question: What about the TGI (SR leukemia) of the same molecule?
Answer: 2280 nM

Question: What about the TGI (NCI-H522 lung) of the same molecule?
Answer: 408 nM

Question: And the TGI (A498 renal)?
Answer: 1320 nM

Question: And the TGI (SK-MEL-28 melanoma)?
Answer: 2020 nM

Question: And the TGI (MALME-3M melanoma)?
Answer: 1080 nM

Question: What about the TGI (OVCAR-8 ovarian) of the same molecule?
Answer: 1900 nM

Question: What about the TGI (HCT-15 colon) of the same molecule?
Answer: 1600 nM

Question: What about the TGI (CCRF-CEM leukemia) of the same molecule?
Answer: 1760 nM

Question: What about the TGI (HS 578T breast) of the same molecule?
Answer: 942 nM

Question: And the TGI (A549 NSCLC)?
Answer: 1350 nM

Question: What about the TGI (KM12 colon) of the same molecule?
Answer: 1520 nM

Question: What about the TGI (NCI-H23 lung) of the same molecule?
Answer: 2810 nM

Question: And the TGI (UO-31 renal)?
Answer: 1770 nM

Question: And the TGI (DU-145 prostate)?
Answer: 1940 nM

Question: What about the TGI (786-0 renal) of the same molecule?
Answer: 1240 nM

Question: And the TGI (HL-60(TB) leukemia)?
Answer: > 100000 nM

Question: And the TGI (IGROV1 ovarian)?
Answer: 1350 nM

Question: What about the TGI (SK-MEL-2 melanoma) of the same molecule?
Answer: 1270 nM

Question: And the TGI (T-47D breast)?
Answer: 1250 nM

Question: What about the TGI (MOLT-4 leukemia) of the same molecule?
Answer: 1070 nM

Question: And the TGI (NCI-H460 lung)?
Answer: 1430 nM

Question: And the TGI (TK-10 renal)?
Answer: 1350 nM

Question: And the TGI (HCC-2998 colon)?
Answer: 1630 nM

Question: And the TGI (SK-MEL-5 melanoma)?
Answer: 636 nM

Question: And the TGI (MCF7 breast)?
Answer: 674 nM

Question: What about the TGI (OVCAR-4 ovarian) of the same molecule?
Answer: 1510 nM

Question: What about the TGI (HCT-116 colon) of the same molecule?
Answer: 1660 nM

Question: What about the TGI (SNB-75 CNS) of the same molecule?
Answer: 1000 nM

Question: What about the TGI (HOP-62 NSCLC) of the same molecule?
Answer: 1360 nM

Question: What about the TGI (SW-620 colon) of the same molecule?
Answer: 692 nM

Question: And the TGI (LOX IMVI melanoma)?
Answer: 1230 nM

Question: And the TGI (BT-549 breast)?
Answer: 1600 nM

Question: And the TGI (UACC-257 melanoma)?
Answer: 414 nM

Question: What about the TGI (CAKI-1 renal) of the same molecule?
Answer: 1150 nM

Question: What about the TGI (HOP-92 NSCLC) of the same molecule?
Answer: 420 nM

Question: What about the TGI (ACHN renal) of the same molecule?
Answer: 1410 nM

Question: What about the TGI (SF-295 CNS) of the same molecule?
Answer: 1010 nM

Question: What about the TGI (SNB-19 CNS) of the same molecule?
Answer: 2030 nM

Question: What about the TGI (NCI/ADR-RES ovarian) of the same molecule?
Answer: 9700 nM

Question: And the TGI (MDA-MB-435)?
Answer: 721 nM

Question: What about the TGI (NCI-H226 lung) of the same molecule?
Answer: 1020 nM

Question: What about the TGI (U251 CNS) of the same molecule?
Answer: 280 nM

Question: What about the TGI (OVCAR-3 ovarian) of the same molecule?
Answer: 1480 nM

Question: And the TGI (OVCAR-5 ovarian)?
Answer: 2200 nM

Question: And the TGI (MDA-N)?
Answer: 1160 nM

Question: And the TGI (SN12C renal)?
Answer: 2190 nM

Question: What about the TGI (MDA-MB-231 breast) of the same molecule?
Answer: 1220 nM

Question: And the TGI (EKVX NSCLC)?
Answer: 432 nM

Question: Which results are given for `O=c1c2cc(Cl)ccc2[nH]c2cc(O)cc(O)c12`?
Answer: TGI (RXF 393 renal): > 10000 nM; TGI (PC-3 prostate): > 10000 nM; TGI (HT29 colon): > 10000 nM; TGI (SF-539 CNS): > 10000 nM; TGI (SK-OV-3 ovarian): > 10000 nM; TGI (M14 melanoma): > 10000 nM; TGI (SF-268 CNS): > 10000 nM; TGI (K-562 leukemia): > 10000 nM; TGI (SR leukemia): > 10000 nM; TGI (RPMI-8226 leukemia): > 10000 nM; TGI (NCI-H522 lung): > 10000 nM; TGI (A498 renal): > 10000 nM; TGI (SK-MEL-28 melanoma): > 10000 nM; TGI (MALME-3M melanoma): > 10000 nM; TGI (OVCAR-8 ovarian): > 10000 nM; TGI (HCT-15 colon): > 10000 nM; TGI (CCRF-CEM leukemia): > 10000 nM; TGI (HS 578T breast): > 10000 nM; TGI (A549 NSCLC): > 10000 nM; TGI (UACC-62 melanoma): > 10000 nM; TGI (KM12 colon): > 10000 nM; TGI (NCI-H23 lung): > 10000 nM; TGI (DU-145 prostate): > 10000 nM; TGI (786-0 renal): > 10000 nM; TGI (HL-60(TB) leukemia): > 10000 nM; TGI (IGROV1 ovarian): > 10000 nM; TGI (COLO 205 colon): > 10000 nM; TGI (SK-MEL-2 melanoma): > 10000 nM; TGI (T-47D breast): > 10000 nM; TGI (MOLT-4 leukemia): > 10000 nM; TGI (NCI-H460 lung): > 10000 nM; TGI (TK-10 renal): > 10000 nM; TGI (HCC-2998 colon): > 10000 nM; TGI (SK-MEL-5 melanoma): > 10000 nM; TGI (MCF7 breast): > 10000 nM; TGI (OVCAR-4 ovarian): > 10000 nM; TGI (HCT-116 colon): > 10000 nM; TGI (SNB-75 CNS): > 10000 nM; TGI (HOP-62 NSCLC): > 10000 nM; TGI (SW-620 colon): > 10000 nM; TGI (BT-549 breast): > 10000 nM; TGI (UACC-257 melanoma): > 10000 nM; TGI (CAKI-1 renal): > 10000 nM; TGI (HOP-92 NSCLC): > 10000 nM; TGI (ACHN renal): > 10000 nM; TGI (SF-295 CNS): > 10000 nM; TGI (SNB-19 CNS): > 10000 nM; TGI (NCI/ADR-RES ovarian): > 10000 nM; TGI (MDA-MB-435): > 10000 nM; TGI (NCI-H226 lung): > 10000 nM; TGI (U251 CNS): > 10000 nM; TGI (OVCAR-3 ovarian): > 10000 nM; TGI (OVCAR-5 ovarian): > 10000 nM; TGI (MDA-N): > 10000 nM; TGI (SN12C renal): > 10000 nM; TGI (MDA-MB-231 breast): > 10000 nM; TGI (EKVX NSCLC): > 10000 nM
